According to PMC3914206:

Target: T1, panel of 442 kinases (Homo sapiens, UniProt P52564)
T1 construct: purchased KINOMEscan
T1 sequence (P52564 1-334): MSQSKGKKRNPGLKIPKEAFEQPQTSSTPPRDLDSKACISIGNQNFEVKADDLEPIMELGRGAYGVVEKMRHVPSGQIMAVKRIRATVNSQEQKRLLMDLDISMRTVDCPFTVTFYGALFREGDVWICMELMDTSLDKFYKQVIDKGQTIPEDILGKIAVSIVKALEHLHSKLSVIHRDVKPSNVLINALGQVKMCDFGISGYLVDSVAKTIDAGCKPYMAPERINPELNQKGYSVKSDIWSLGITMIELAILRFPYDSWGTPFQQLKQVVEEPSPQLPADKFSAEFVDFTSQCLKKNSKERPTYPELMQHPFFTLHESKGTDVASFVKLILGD
Format: binding
Conditions: Compound Concentration 10 µM
Text: We assessed the selectivity of members of this scaffold using the KINOMEscan methodology across a near comprehensive panel of 442 kinases [[18,27]].

Row | SMILES | KINOMEscan: MEK6
1 | CCOc1cc(C(=O)N2CCC(N3CCN(C)CC3)CC2)ccc1Nc1ncc2c(n1)N(C1CCCC1)c1ccccc1C(=O)N2C [Compound 26] | 84
2 | COc1cc(C(=O)N2CCC(N3CCN(C)CC3)CC2)ccc1Nc1ncc2c(n1)N(C1CCCC1)c1ccccc1C(=O)N2C [Compound 25, 11-cyclopentyl-2-((2-methoxy-4-(4-(4-methylpiperazin-1-yl)piperidine-1-carbonyl)phenyl)amino)-5-methyl-5H-benzo[e]pyrimido[5,4-b][1,4]diazepin-6(11H)-one] | 61
3 | COc1cc(C(=O)N2CCC(N3CCN(C)CC3)CC2)ccc1Nc1ncc2c(n1)N1CCc3cccc(c31)C(=O)N2C [Compound 24] | 66
4 | COc1cc(C(=O)N2CCC(N3CCN(C)CC3)CC2)ccc1Nc1ncc2c(n1)N(C)c1ccccc1C(=O)N2C [15 (LRRK2-IN-1)] | 83
